Data set [1] concerns apomorphine induced gnawing. The experiment in a line: Inhibition of apomorphine induced gnawing in the rat. The data set is classed as in vivo, rat (Sprague-Dawley). The note with it: po, apomorphine hydrochloride 2.0 mg/kg i.v., read-out: threshold dose (100% inhibition of apomorphine induced gnawing). As to the method:
The compound of formula I inhibits apomorphine induced gnawing in the rat in a method based on that of P.A. Janssen et al., Arzneim.-Forsch. (Drug Res.) 10, 1003-1005 (1960):
Groups of 3-6 rats (males and females, 90-160 g, Sprague-Dawley, Suddeutsche Tierfarm, Tuttlingen, West Germany) are treated with the test-drug orally and after a pre-determined time further treated with 2.0 mg/kg i.v. apomorphine hydrochloride in aq. solution. They are then placed in individual cages lined with corrugated paper. At times 10, 20 and 30 minutes after the apomorphine each rat is observed for 1 minute. If gnawing occurred during an observation period, that observation is scored as positive. Thus, three scores are obtained from each rat. The supra-maximal dose of apomorphine invariably produces gnawing in all controls at all observation times. Out of the total number of observations per treatment group, the number of positives is noted. The dose of drug which causes a 100% inhibition of the apomorphine induced gnawing is taken as the threshold dose. After a pretreatment time of 3 hours the threshold dose for the compound of formula I is 0.2 mg/kg p.o., after a pretreatment time of 6 hours also 0.2 mg/kg p.o.

Data set [2] can be described thus: Non-toxic dose level in the dog after 4 week treatment. The note with it: in vivo, po, after a 4 week treatment. As for the experimental part: (§1) The compound of formula I is well tolerated in mice up to 100 mg/kg p.o. The non-toxic dose level in the dog after a 4 week treatment is 3 mg/kg/day p.o.
For a further data set, the target named is T1, D-2 receptor sites (Bos taurus, UniProt P20288).
T1 construct: Calf striatal membranes are prepared as described above; from tissue; host or cells: calf brain striatum, membrane homogenate
T1 sequence (P20288 whole entry): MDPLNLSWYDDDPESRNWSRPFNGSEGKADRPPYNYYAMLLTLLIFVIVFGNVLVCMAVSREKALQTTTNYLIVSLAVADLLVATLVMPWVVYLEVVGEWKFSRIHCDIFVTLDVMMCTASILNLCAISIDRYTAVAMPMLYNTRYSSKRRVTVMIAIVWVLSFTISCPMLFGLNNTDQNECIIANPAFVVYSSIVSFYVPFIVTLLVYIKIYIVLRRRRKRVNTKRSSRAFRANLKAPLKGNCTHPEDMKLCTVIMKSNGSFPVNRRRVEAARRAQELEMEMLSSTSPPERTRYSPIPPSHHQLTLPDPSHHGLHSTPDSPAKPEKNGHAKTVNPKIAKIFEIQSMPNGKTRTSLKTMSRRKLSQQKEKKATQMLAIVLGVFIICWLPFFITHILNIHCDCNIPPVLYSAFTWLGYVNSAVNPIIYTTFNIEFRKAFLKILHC
Kind of data set: D-2 receptor binding, 3H-spiperone binding assay in calf striatal membranes. As to the method: (§2) Furthermore the compound of formula I binds to dopamine receptors as characterised by the displacement of ^3 H-ligands from their respective binding sites in the homogenates of brain tissue.
(§3) Fresh calf brain striatal tissue is homogenized in a 20 fold volume of Tris-HCl buffer (50 mM, pH 7.4 at 25° C.) using a Polytron tissue homogenizer. The homogenate is centrifuged for 10 minutes at 50,000 g (4° C.) and the supernatant discarded. The pellets are resuspended in the same buffer as before. The suspension is incubated for 20 minutes at 37° C. and then recentrifuged as before. The resulting pellets are stored frozen at -20° until their use in the binding assay. For the binding assay the pellets are resuspended in Tris-HCl buffer (50 mM, pH 7.4 at 37° C., containing 120 mM NaCl) in such a way that the final volume of 2 ml contains membranes corresponding to approximately 5 mg original tissue weight. ^3 H-SCH 23390 is added to give a final concentration of 0.1 nM. The assays for the determination of nonspecific binding additionally contain 1 μM unlabelled SCH 23390. The test compound is added to give 5 to 9 different concentrations. […] The filters are monitored for radioactivity through liquid scintillation counting. […]
The high affinity of the compound for D-2 receptor sites may be determined in the ^3 H-spiperone binding assay [cf. […]

A further data set can be described thus: Tolerability in mice. The settings on record: mouse, in vivo, po, well tolerated up to, read-out: well tolerated dose. As for the experimental part: as §1
The test system of data set [3] is serum prolactin levels. Set-up: species or system rat (male Sprague-Dawley). The settings on record: rat, in vivo. As to the method:
The test is performed as follows:
Male rats (120-140 g, Sprague-Dawley, Suddeutsche Tierfarm, Tuttlingen, West Germany) are maintained on a 12:12 light dark cycle (lights on 06.00, off 18.00 hrs). On the evening before the experiment, animals are marked for identification purposes and caged in groups of 4 into makrolon (type 3) cages. The next morning, the rats in each group receive 10 mg/kg p.o. of the test drug or placebo (normal saline solution+2 drops HCl) 2, 4, 8, 16 or 24 hours before they are killed by decapitation. Blood samples are collected in plastic tubes, centrifuged to obtain the serum, which is then stored at -20° C. until assayed for prolactin. Prolactin in the serum is measured by radioimmunoassay according to that of A. Hausler et al., J. Ultrastruct. Res. 64, 74 (1978).

A further data set has as its target T2, D-1 receptor sites (Bos taurus, UniProt Q95136).
T2 construct: Fresh calf brain striatal tissue is homogenized; from tissue; host or cells: calf brain striatum, membrane homogenate
The experiment in a line: D-1 receptor binding, displacement of 3H-SCH 23390 in calf striatal membranes. As to the method:
as §2
The affinity to D-1 receptor sites [cf. W. Billard et al., Life Sci. 35, 1885-1893 (1984)] using ^3 H-(R)-(+)-8-chloro-7-hydroxy-3-methyl-5-phenyl-2,3,4,5-tetrahydro-1H-3-benzazepine (^3 H-SCH 23390) as ligand is determined as follows:
as §3, with “23390.” for “23390. The test compound is added to give 5 to 9 different concentrations.”
(In general: Loss of bound radioactivity is the signal in a displacement assay; it reports binding, not function.)

Data set [4] has as its system serum prolactin levels. Kind of data set: Serum prolactin levels in male rats after subcutaneous administration (radioimmunoassay). The format is in vivo, rat (male OFA). The settings on record: s.c., only at high doses. As for the experimental part: E. Fluckiger et al., Experientia 34, 1330-1331 (1978)]:
Male OFA-rats of about 250 g body weight are brought to the experimental room 24 hours before the actual experiment. They are kept in appropriate cages by tens. After the experimental treatment they are kept singly. Food and water are freely available. Various doses of the compound or the vehicle are administered s.c. to groups of 5 animals. In this standard experiment the animals are decapitated 4 hours after treatment. The sera of the individual animals are deep frozen until assayed. Prolactin is then measured in aliquots by radioimmunoassay. The serum prolactin levels are expressed in ng/ml in terms of the prolactin standard NIAMD-RPrl-RP1.

The nature of data set [5]: Cataleptogenic activity in rats. The data set is classed as in vivo, rat (Sprague-Dawley). The note with it: rat, in vivo, po, read-out: ratio of catalepsy threshold dose to dose required to antagonize apomorphine induced gnawing. As to the method:
(§4) (Drug Res.) 21, 252-255 (1971). In this test groups of 4-8 rats (120-170 g, Sprague-Dawley, females and males, Suddeutsche Tierfarm, Tuttlingen, West Germany) receive the test substance orally. At specified times after treatment the catalepsy of each rat is estimated by placing the forepaws on a 7 cm high block. The time for which the animal remains in this unnatural position is measured up to a maximum of 45 seconds. The threshold dose is the final dose, which still causes a catalepsy-median of >10 seconds. The compound of formula I has a threshold dose of 5 mg/kg p.o. determined during an 8 hour measurement period. This is a dose which is at least 25 times higher than that required to antagonize apomorphine induced gnawing.

The next data set deals with catalepsy. The experiment in a line: Cataleptogenic activity in rats. The note with it: p.o. The data set is classed as in vivo, rat (Sprague-Dawley). As to the method: as §4
Data set [6] concerns rats with an unilateral 6-OHDA (6-hydroxydopamine) induced lesion of the substantia nigra. Kind of data set: Rotational behaviour in rats with unilateral 6-OHDA induced lesion of the substantia nigra (Ungerstedt rat). The format is in vivo. The source says: For instance, the compound of formula I induces in rats with an unilateral 6-OHDA (6-hydroxydopamine) induced lesion of the substantia nigra [i.e. Ungerstedt rat, c.f.

Read-outs that look alike come from different tables or passages of the source.

T2 sequence (Q95136 whole entry): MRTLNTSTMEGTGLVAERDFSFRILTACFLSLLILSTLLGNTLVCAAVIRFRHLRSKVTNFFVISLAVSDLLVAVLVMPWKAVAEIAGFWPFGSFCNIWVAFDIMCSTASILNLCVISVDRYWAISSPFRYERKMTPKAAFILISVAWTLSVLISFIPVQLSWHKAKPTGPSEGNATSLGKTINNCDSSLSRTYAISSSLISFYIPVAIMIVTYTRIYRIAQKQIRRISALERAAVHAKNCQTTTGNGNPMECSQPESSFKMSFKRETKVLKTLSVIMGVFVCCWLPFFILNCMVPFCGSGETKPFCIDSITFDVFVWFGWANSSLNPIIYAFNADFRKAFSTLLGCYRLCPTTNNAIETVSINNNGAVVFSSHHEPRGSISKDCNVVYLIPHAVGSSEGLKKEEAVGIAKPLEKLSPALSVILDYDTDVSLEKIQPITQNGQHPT

As for `O=C(CCCN1CCC(O)(c2ccc(Cl)cc2)CC1)c1ccc(F)cc1` [haloperidol, reference compound], the ED100 in [1] (pretreatment time 6 hours) amounted to 0.2 mg/kg.

`CCC(C)(CC)C(=O)N[C@H]1C[C@@H]2c3cccc4[nH]c(C)c(c34)C[C@H]2N(C)C1` [compound of formula I, N-[(5R,8S,10R)-2,6-dimethyl-ergoline-8-yl]-2-ethyl-2-methyl-butanamide]: the NOAEL at 672 h in [2] is 3 mg/kg/day. For the same compound, the IC50 was about 20 nM on D-2 receptor sites and about 50 nM at D-1 receptor sites. For the same compound, in “Tolerability in mice”, the MTD is at least 100 mg/kg. In addition, the “effect on prolactin levels, oral administration (overall)” value in the data set on serum prolactin levels [3] was “only weak effects on prolactin levels”. The “effect on serum prolactin levels” value in the data set on serum prolactin levels [3] (po, 10 mg/kg) is recorded as “declines (24 hours) towards normal”. For the same compound, in the data set with serum prolactin levels [4], the “dose that influences serum prolactin levels” value is listed as at least 10 mg/kg. For the same compound, in [5], the selectivity ratio was at least 25. Further, in the data set with catalepsy, the “cataleptogenic activity (in words)” value was “only a weak cataleptogenic activity”. Also, the “threshold dose (catalepsy-median of >10 seconds)” value in the data set on catalepsy (8 hour measurement period) came to 5 mg/kg p.o. Also, the ED100 in data set [1] (pretreatment time 3 hours) and in data set [1] (pretreatment time 6 hours) was 0.2 mg/kg in each case. For the same compound, the “rotations contralateral to the lesion” value in data set [6] (0.5 mg/kg p.o., within 7 hours) is on record as 950 rotations. Besides, the “rotational behaviour (in words)” value in data set [6] (rats, relatively low doses, p.o.) is “long lasting rotational behaviour contralateral to the lesion”.

For orientation: NOAEL means the highest tested level that showed no adverse finding. One may read the IC50 as the concentration that gives 50% inhibition. Low values mean higher potency, high ones lower potency.

For the origin of these results see patent US5075318A, “8α-acylaminoergoline, its preparation and pharmaceutical compositions containing it” (Sandoz Ltd., priority 1987, dated 1991).
